Assay results taken from US20190290685A1, “COMPOSITIONS AND ASSOCIATED METHODS OF MESOPOROUS NANOPARTICLES COMPRISING PLATINUM-ACRIDINE MOLECULES” (Wake Forest University, priority 2016, published 2019).
“Also recorded” adds a separate entry of the source.

Columns and labels:
BxPC3 cells = experiment: Flow cytometry cell cycle analysis; format: cell-based, human; settings: BxPC3, 48 h, micromolar-to-submicromolar concentrations; dinitrate salt
Description: BxPC3 cells were treated with P1A1@MSNLP-COOH-LIP10, P1A1, or MSNLP-COOH-LIP10 for 48 h at the indicated concentrations. Cells were gently trypsinized, washed in PBS, fixed in ice-cold EtOH:PBS (1:1) at equivalent cell concentrations, and stored at −20° C. Cells were washed with PBS, stained using FxCycle PI/RNase staining solution (Molecular Probes, Eugene, Oreg.) and assessed by flow cytometry using an Accuri C6 (BD Biosciences, San Jose, Calif.). Data was analyzed using Modfit software v3.3.

[1] = system: BxPC3 pancreatic cancer cells; experiment: Confocal fluorescence microscopy, uptake and subcellular distribution; format: cell-based, human; settings: BxPC3, 5 μM P1A1 or equivalent, 1 h and 12 h
Description: BxPC3 cells were seeded onto chamber slides (Nunc, Rochester, N.Y.) and allowed to attach for 48 h. Cells were then treated with 5 μM P1A1, P1A1@MSNLP-COOH-LIP10 at an equivalent concentration of drug, or vehicle. The medium was aspirated and cells were co-stained by incubating with 75 nM Lysotracker Red in complete medium for 1 h. Cells were washed 3× with PBS and fixed in 4% formaldehyde/PBS for 15 min. After another three PBS washes, cover slips were mounted onto 4-well chamber slides using vectashield HardSet mounting medium (Vector Labs, Burlingame, Calif.) and stored at 4° C. until ready to use. Images were collected using a Zeiss LSM 710 confocal microscope (Carl Zeiss MicroImaging, Thornwood, N.Y.) using a 63× (PLAN Oil APO, 1.4 NA) objective lens. All image channels were acquired in a sequential mode to minimize excitation cross talk and emission bleed-through. […] For comparative fluorescence intensity analysis, great care was taken to equalize excitation power, pinhole settings, PMT gain, and offset values across and within imaging sessions for each respective channel. […] Where necessary, post-acquisition contrast adjustments were applied to the entire image, and processing was identical in all fluorescence channels. […]

“[PtCl(en)(N-[acridin-9-ylaminoethyl]-N-methylpropionamidine)] dinitrate salt [Compound P1A1]” was tested, and the “effect on cell cycle distribution” value (BxPC3 cells) was “robust S phase arrest; also recorded: sub-G1 population at the highest dose” and the “uptake and subcellular distribution” value [1] was “accumulates rapidly (about 1 h) in cells to produce blue fluorescence associated with the entire cytoplasm and, to a lesser extent, the nuclear region”.
